According to publication PMC10518257 (Nature Cancer, 2023):
“And” between values parts separate entries of the source, which are not always exact repeats. Equal values may be shown once. Read-outs that look alike come from different tables or passages of the source.

Assays:
[1] = Pharmacokinetic analysis of vepafestinib in rats (microdialysis PFC, CSF, plasma); assay type: in vivo, male Han Wistar rats; conditions: for concentration at 480 min: read-out: Concentration in Cerebrospinal fluid
[2] = test system: phospho-RET and phospho-ERK in Ba/F3 KIF5B–RET^WT tumors; test: Western blotting of tumors after a single dose (target engagement); assay type: in vivo, mice; conditions: single dose 50 mg per kg
[3] = molecular target: T1, panel of 255 (vepafestinib) or 256 (all other inhibitors) recombinant kinases (Homo sapiens, UniProt Q15759); test: Kinase selectivity profiling at a single concentration (Carna Biosciences); assay type: biochemical; conditions: 23 nM
T1 construct: purchased Carna Biosciences

[4] = molecular target: T2, panel of 255 (vepafestinib) or 256 (all other inhibitors) recombinant kinases (Homo sapiens, UniProt Q9P0L2); test: as above; assay type: biochemical; conditions: 23 nM
T2 construct: purchased Carna Biosciences

[5] = molecular target: T3, panel of 255 (vepafestinib) or 256 (all other inhibitors) recombinant kinases (Homo sapiens, UniProt P17252); test: as above; assay type: biochemical; conditions: 23 nM
T3 construct: purchased Carna Biosciences

[6] = molecular target: T4, panel of 255 (vepafestinib) or 256 (all other inhibitors) recombinant kinases (Homo sapiens, UniProt P31749); test: as above; assay type: biochemical; conditions: 23 nM
T4 construct: purchased Carna Biosciences

[7] = molecular target: T5, panel of 255 (vepafestinib) or 256 (all other inhibitors) recombinant kinases (Homo sapiens, UniProt Q9NQU5); test: as above; assay type: biochemical; conditions: 23 nM
T5 construct: purchased Carna Biosciences

[8] = test system: RET^G810R phosphorylation in Ba/F3 KIF5B–RET^G810R allograft tumors; test: Western blotting of tumors 1 h after dosing (target engagement); assay type: in vivo, mice; conditions: 10 mg per kg and 30 mg per kg

T5 sequence (Q9NQU5 whole entry): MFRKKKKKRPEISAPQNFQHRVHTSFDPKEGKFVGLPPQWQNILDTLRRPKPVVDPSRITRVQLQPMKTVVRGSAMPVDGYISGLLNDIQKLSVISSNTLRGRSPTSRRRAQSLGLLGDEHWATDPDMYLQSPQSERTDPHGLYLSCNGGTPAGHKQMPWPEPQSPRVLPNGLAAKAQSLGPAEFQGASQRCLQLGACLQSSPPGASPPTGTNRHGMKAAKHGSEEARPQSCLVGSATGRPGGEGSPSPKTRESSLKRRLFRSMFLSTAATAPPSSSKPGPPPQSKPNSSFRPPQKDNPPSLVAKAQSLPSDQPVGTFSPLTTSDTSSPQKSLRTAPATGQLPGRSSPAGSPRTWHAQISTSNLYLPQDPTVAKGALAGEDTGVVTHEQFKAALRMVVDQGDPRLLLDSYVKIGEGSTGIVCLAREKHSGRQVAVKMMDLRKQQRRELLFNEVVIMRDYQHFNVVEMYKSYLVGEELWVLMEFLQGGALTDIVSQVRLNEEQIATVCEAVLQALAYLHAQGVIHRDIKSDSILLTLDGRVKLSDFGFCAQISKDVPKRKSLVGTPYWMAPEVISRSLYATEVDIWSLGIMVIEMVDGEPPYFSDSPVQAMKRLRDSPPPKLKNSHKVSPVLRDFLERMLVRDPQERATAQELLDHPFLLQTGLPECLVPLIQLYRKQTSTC
T2 sequence (Q9P0L2 whole entry): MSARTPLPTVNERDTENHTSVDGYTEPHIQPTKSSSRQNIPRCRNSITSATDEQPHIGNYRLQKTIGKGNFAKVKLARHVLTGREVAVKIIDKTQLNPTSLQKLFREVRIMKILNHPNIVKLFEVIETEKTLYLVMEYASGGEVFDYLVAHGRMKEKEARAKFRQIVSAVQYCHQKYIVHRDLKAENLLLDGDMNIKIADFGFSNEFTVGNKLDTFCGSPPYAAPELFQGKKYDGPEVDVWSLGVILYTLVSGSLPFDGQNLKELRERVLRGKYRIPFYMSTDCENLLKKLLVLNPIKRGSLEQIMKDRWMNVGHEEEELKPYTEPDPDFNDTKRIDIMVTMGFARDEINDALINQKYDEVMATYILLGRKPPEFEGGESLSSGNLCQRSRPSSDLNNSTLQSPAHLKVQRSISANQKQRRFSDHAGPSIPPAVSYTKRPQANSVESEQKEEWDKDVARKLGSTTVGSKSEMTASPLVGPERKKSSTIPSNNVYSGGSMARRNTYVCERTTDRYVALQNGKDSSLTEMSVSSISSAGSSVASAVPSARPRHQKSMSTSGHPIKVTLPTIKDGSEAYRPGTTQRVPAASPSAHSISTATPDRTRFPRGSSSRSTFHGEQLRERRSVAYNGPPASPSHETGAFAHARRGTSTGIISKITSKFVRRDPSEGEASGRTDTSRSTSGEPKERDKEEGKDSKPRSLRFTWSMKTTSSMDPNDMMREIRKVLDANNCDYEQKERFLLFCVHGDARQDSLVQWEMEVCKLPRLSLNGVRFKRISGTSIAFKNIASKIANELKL
T1 sequence (Q15759 whole entry): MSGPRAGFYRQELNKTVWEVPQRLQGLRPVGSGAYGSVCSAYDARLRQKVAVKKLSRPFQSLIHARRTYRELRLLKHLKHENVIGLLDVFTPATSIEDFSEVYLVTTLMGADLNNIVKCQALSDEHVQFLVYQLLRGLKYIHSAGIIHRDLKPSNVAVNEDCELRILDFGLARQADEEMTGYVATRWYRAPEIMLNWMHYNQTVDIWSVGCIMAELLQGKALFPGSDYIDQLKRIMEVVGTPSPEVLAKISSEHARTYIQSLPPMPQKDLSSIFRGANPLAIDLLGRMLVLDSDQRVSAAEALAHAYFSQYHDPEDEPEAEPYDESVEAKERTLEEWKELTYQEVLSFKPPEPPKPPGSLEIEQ
T4 sequence (P31749 whole entry): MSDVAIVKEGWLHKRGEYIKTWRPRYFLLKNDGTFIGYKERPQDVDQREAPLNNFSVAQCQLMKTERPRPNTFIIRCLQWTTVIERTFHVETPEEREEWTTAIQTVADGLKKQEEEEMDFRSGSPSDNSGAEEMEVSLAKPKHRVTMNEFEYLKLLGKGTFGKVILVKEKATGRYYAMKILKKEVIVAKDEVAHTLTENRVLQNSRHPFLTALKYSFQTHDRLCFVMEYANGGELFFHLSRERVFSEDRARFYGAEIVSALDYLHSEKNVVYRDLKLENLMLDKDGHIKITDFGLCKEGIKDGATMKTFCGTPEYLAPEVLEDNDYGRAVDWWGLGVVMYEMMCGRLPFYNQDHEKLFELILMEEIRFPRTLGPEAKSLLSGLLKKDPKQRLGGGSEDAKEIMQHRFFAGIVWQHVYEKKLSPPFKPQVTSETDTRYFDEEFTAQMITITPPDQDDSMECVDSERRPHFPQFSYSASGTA

## COCc1ccc(NC(=O)c2c(C#CCN3CCOCC3)n(C3(C)CC3)c3ncnc(N)c23)cc1 [Vepafestinib, 4-amino-N-[4-(methoxymethyl)phenyl]-7-(1-methylcyclopropyl)-6-[3-(morpholin-4-yl)prop-1-yn-1-yl]-7H-pyrrolo[2,3-d]pyrimidine-5-carboxamide]
[1]; male, Han Wistar, rat, plasma, oral, 50 mg/kg, rats, 50 mg/kg, 30 min, individual animals, read-out: Concentration in Plasma (total)
  concentration at 30 min: 15100 nM
[1]; male, Han Wistar, rat, plasma, oral, 50 mg/kg, rats, 50 mg/kg, 60 min, individual animals, read-out: Concentration in Plasma (total)
  concentration at 60 min: 10400 nM
[1]; male, Han Wistar, rat, prefrontal cortex microdialysate, oral, 3 mg/kg, 30 min, individual rats, read-out: Concentration in Rats, Prefrontal cortex
  concentration at 30 min: 7.04 nM
[1]; male, Han Wistar, rat, prefrontal cortex microdialysate, oral, 3 mg/kg, 90 min, individual rats
  concentration at 90 min: 102 nM
[1]; male, Han Wistar, rat, prefrontal cortex microdialysate, oral, 3 mg/kg, 120 min, individual rats, read-out: Concentration in Rats, Prefrontal cortex
  concentration at 120 min: 129 nM
[1]; male, Han Wistar, rat, prefrontal cortex microdialysate, oral, 3 mg/kg, 150 min, individual rats
  concentration at 150 min: 101 nM
[1]; male, Han Wistar, rat, prefrontal cortex microdialysate, oral, 10 mg/kg, 30 min, individual rats, read-out: Concentration in Rats, Prefrontal cortex
  concentration at 30 min: 17.5 nM
[1]; male, Han Wistar, rat, prefrontal cortex microdialysate, oral, 10 mg/kg, 60 min, individual rats, read-out: Concentration in Rats, Prefrontal cortex
  concentration at 60 min: 362 nM
[1]; male, Han Wistar, rat, prefrontal cortex microdialysate, oral, 10 mg/kg, 90 min, individual rats
  concentration at 90 min: 514 nM
[1]; male, Han Wistar, rat, prefrontal cortex microdialysate, oral, 10 mg/kg, 120 min, individual rats, read-out: Concentration in Rats, Prefrontal cortex
  concentration at 120 min: 479 nM
[1]; male, Han Wistar, rat, prefrontal cortex microdialysate, oral, 10 mg/kg, 150 min, individual rats
  concentration at 150 min: 270 nM
[1]; male, Han Wistar, rat, prefrontal cortex microdialysate, oral, 10 mg/kg, 180 min, individual rats, read-out: Concentration in Rats, Prefrontal cortex
  concentration at 180 min: 259 nM
[1]; male, Han Wistar, rat, prefrontal cortex microdialysate, oral, 50 mg/kg, rats, 50 mg/kg, 120 min, individual animals, read-out: Concentration in Prefrontal cortex
  concentration at 120 min: 972 nM
[1]; male, Han Wistar, rat, prefrontal cortex microdialysate, oral, 50 mg/kg, rats, 50 mg/kg, 1500 min, individual animals, read-out: Concentration in Prefrontal cortex
  concentration at 1500 min: 71.6 nM
[1]; male, Han Wistar, rat, prefrontal cortex microdialysate, oral, 50 mg/kg, 120 min, individual rats, read-out: Concentration in Rats, Prefrontal cortex
  concentration at 120 min: 972 nM
[1]; male, Han Wistar, rat, prefrontal cortex microdialysate, oral, 50 mg/kg, 1500 min, individual rats, read-out: Concentration in Rats, Prefrontal cortex
  concentration at 1500 min: 71.6 nM
[1]; rats, 50 mg/kg, 30 min, individual animals, 50 mg/kg
  concentration at 480 min: 1290 nM and 1440 nM and 2760 nM and 1580 nM
[1]; rats, 50 mg/kg, 30 min, individual animals, 50 mg/kg, read-out: Concentration in Plasma (total)
  concentration at 60 min: 15700 nM and 13100 nM and 11800 nM
[1]; rats, 50 mg/kg, 30 min, individual animals, 50 mg/kg, read-out: Concentration in Prefrontal cortex
  concentration at 1500 min: 30.2 nM and 10.2 nM and 22.2 nM and 39.9 nM
[1]; rats, 50 mg/kg, 60 min, individual animals, 50 mg/kg
  concentration at 480 min: 648 nM and 1420 nM and 2370 nM and 1210 nM
[1]; rats, 50 mg/kg, 60 min, individual animals, 50 mg/kg, read-out: Concentration in Plasma (total)
  concentration at 60 min: 11900 nM and 11400 nM and 11800 nM
[1]; rats, 50 mg/kg, 60 min, individual animals, 50 mg/kg, read-out: Concentration in Prefrontal cortex
  concentration at 1500 min: 883 nM and 396 nM and 691 nM and 1135 nM
[1]; rats, 50 mg/kg, 90 min, individual animals, 50 mg/kg, read-out: Concentration in Prefrontal cortex
  concentration at 1500 min: 1549 nM and 742 nM and 1277 nM and 1593 nM
[1]; rats, 50 mg/kg, 120 min, individual animals, 50 mg/kg
  concentration at 480 min: 1780 nM and 1160 nM and 2340 nM and 756 nM
[1]; rats, 50 mg/kg, 120 min, individual animals, 50 mg/kg, read-out: Concentration in Plasma (total)
  concentration at 60 min: 16400 nM and 8330 nM and 13200 nM
[1]; rats, 50 mg/kg, 120 min, individual animals, 50 mg/kg, read-out: Concentration in Prefrontal cortex
  concentration at 1500 min: 1089 nM and 1363 nM and 1680 nM
[1]; rats, 50 mg/kg, 150 min, individual animals, 50 mg/kg, read-out: Concentration in Prefrontal cortex
  concentration at 1500 min: 804 nM and 1293 nM and 1118 nM and 1680 nM
[1]; rats, 50 mg/kg, 180 min, individual animals, 50 mg/kg, read-out: Concentration in Plasma (total)
  concentration at 60 min: 6200 nM and 14400 nM and 6310 nM and 8540 nM
[1]; rats, 50 mg/kg, 180 min, individual animals, 50 mg/kg, read-out: Concentration in Prefrontal cortex
  concentration at 1500 min: 761 nM and 1438 nM and 957 nM and 2162 nM
[1]; rats, 50 mg/kg, 210 min, individual animals, 50 mg/kg, read-out: Concentration in Prefrontal cortex
  concentration at 1500 min: 555 nM and 1724 nM and 852 nM and 1666 nM
[1]; rats, 50 mg/kg, 240 min, individual animals, 50 mg/kg
  concentration at 480 min: 1730 nM and 963 nM and 1170 nM and 522 nM
[1]; rats, 50 mg/kg, 240 min, individual animals, 50 mg/kg, read-out: Concentration in Plasma (total)
  concentration at 60 min: 3870 nM and 13700 nM and 7630 nM and 7250 nM
[1]; rats, 50 mg/kg, 240 min, individual animals, 50 mg/kg, read-out: Concentration in Prefrontal cortex
  concentration at 1500 min: 463 nM and 1651 nM and 722 nM and 1680 nM
[1]; rats, 50 mg/kg, 270 min, individual animals, 50 mg/kg, read-out: Concentration in Prefrontal cortex
  concentration at 1500 min: 359 nM and 1856 nM and 877 nM and 1281 nM
[1]; rats, 50 mg/kg, 300 min, individual animals, 50 mg/kg, read-out: Concentration in Plasma (total)
  concentration at 60 min: 4840 nM and 9390 nM and 5350 nM and 4540 nM
[1]; rats, 50 mg/kg, 360 min, individual animals, 50 mg/kg, read-out: Concentration in Plasma (total)
  concentration at 60 min: 5830 nM and 7730 nM and 5370 nM and 2620 nM
[1]; rats, 50 mg/kg, 480 min, individual animals, 50 mg/kg
  concentration at 480 min: 435 nM and 486 nM and 321 nM
[1]; rats, 50 mg/kg, 480 min, individual animals, 50 mg/kg, read-out: Concentration in Plasma (total)
  concentration at 60 min: 134 nM and 4450 nM and 4860 nM and 4260 nM
[1]; rats, 50 mg/kg, 1500 min, individual animals, 50 mg/kg, read-out: Concentration in Prefrontal cortex
  concentration at 1500 min: 123 nM
[2]
  duration of complete inhibition of phospho-RET and phospho-ERK in tumors: at least 8 h
[3]
  % Inhibiton p38β: 7%
[4]
  % Inhibiton MARK1: 6.5%
[5]
  % Inhibiton PKCα: 9.1%
[6]
  % Inhibiton AKT1: 7.9%
[7]
  % Inhibiton PAK6: 7.4%
[8]
  inhibition of RET^G810R phosphorylation in tumors: completely inhibited
